From patent US20160367515A1, “Improved delivery of poorly water soluble drugs with aphafetoprotein stabilized with metal ions” (Oy Safemed Ltd., priority 2013, published 2016) come the findings set out here.

For data set [1], the system named is breast cancer cells MCF-7. Briefly: Microscopic evaluation (DAPI, cell count by ImageJ) of viability and apoptosis of MCF-7 cells. The note with it: MCF-7, 48 h. It is filed as cell-based, human. As for the experimental part:
Concentrations of the compounds were: rhAFP: 3.0 μM, Ptx: 10 μM. Incubation time was 48 h. Patterns on the top (A): magnification ×100; bottom (B): magnification ×400. Cell nuclei were stained with DAPI and visualized with a fluorescent microscope Axioplan, Zeiss equipped with corresponding color filter kits. Apoptotic nuclei at s panel B are shown by arrows. […] Total number of cells in the control wells was taken as 100%. The average data for five wells±mean square deviation are shown.
rhAFP/Ptx equimolar complex was also tested for its growth suppressive activity against tumor cells in vitro. […] Apoptotic cells with condensed chromatin due to rhAFP/Ptx treatments are shown at FIG. 3B with arrows.
MCF-7 cells were seeded onto the microscopic plates Lab-Tek™ Chamber Slides (Thermo Fisher Scientific-Nunc, Germany) for 48 h to reach of 80% confluence and thereafter were subjected to 48-h treatments with Ptx dissolved in DMSO (10 nM), Zn-rhAFP (1.4 μM), or their combination Zn-rhAFP/Ptx (1.4 μM/10 nM). Similarly, the tests had been performed with non-glycosylated rhAFPo species. Thereafter the cells were fixed with 100% ice-cold acetone and stained with DAPI (Molecular probes, USA). Control cells were incubated without additions. […] The quantity of the cells in the various experimental wells in the selected fields of view was assessed by using ImageJ software. […]

For data set [2], the system named is mammary carcinoma cell line MCF-7. Briefly: MTS cell viability assay, mammary carcinoma MCF-7 cells. It counts as cell-based, human. As for the experimental part:
Effect of binding of Zn ions to rhAFP and sugar-free rhAFPo species was tested by measuring of their dose-dependent tumor-suppressive effect for mammary carcinoma cell line MCF-7 in vitro, as it was earlier described for natural embryonic eAFP (Dudich et al., Eur. J. Biochem. 1999; 266: 750-761). MCF-7 cells were incubated with various doses of rhAFP (rhAFPo), Zn-rhAFP (Zn-rhAFPo) or with natural embryonic eAFP for 48 h, and thereafter their viability was assessed by the colorimetric MTS assay (FIG. 1A).
Cell viability was assessed by the Promega CellTiter 96 AQueous Non-Radioactive Cell Proliferation MTS assay (Promega, USA) according to manufacturer's instructions. Cells were incubated with various AFP samples for 48 h as described above, followed by incubation with MTS-test reagents and measuring of the light adsorption of the formasan, appeared in the lysed cell supernatants at 492 nm by using VICTOR-1420 multilabel counter (Wallac, Finland). Intact cell cultures incubated without additions were taken as a control. By such a way the quantity of viable cells capable to internalize MTS dye was determined. Results were expressed as the mean optical density (OD)±the standard error of the mean triplicate cultures. The extent of cell viability was calculated as an average OD in experimental wells after addition of testing compounds in relation to untreated control wells, that was taken as 100%
To evaluate the efficacy of preparations rhAFP/Ptx and Zn-rhAFP/Ptx we compared the cytotoxic effect of Ptx alone or that in combination with rhAFP or Zn-rhAFP for taxol-resistant human hepatoma HepG2 cells, human breast carcinoma cells MCF-7, and rat glioma C6 cell lines in vitro. RhAFP or Zn-rhAFP were incubated with various doses of Ptx at 37° C. for 1 h to allow complex formation with molecular ratios rhAFP:Ptx 1:1; 1:3 or 1:5 and thereafter the mixtures were introduced into the cell culture for 48 hrs. Cytotoxicity was measured by MTS assay.
Various doses of rhAFP/Ptx complexes were tested for their effectiveness for inhibition of human mammary carcinoma MCF-7, human hepatoma HepG2, and rat glioma C6 tumor cell growth in vitro. First, we optimized drug concentration and rhAFP amount to the extent that it would not generate an extensive cytotoxic effect alone. Then, the cells were seeded in 96-well plates at a density of 3×10^3/well in 100 μl of medium for 24 hrs to allow adherence. The next day, rhAFP or Zn-rhAFP combined with Ptx at the molecular ratios of 1:1; 1:3 or 1:5 were added into the each well. After 48 h of incubation MTS assays were performed to determine survival rate of the cells. All the experiments were repeated at least three times. The results were expressed as mean±standard error (SE).
The coefficient of drug interaction (CDI) was calculated to analyze the effects of rhAFP and Ptx combinations. CDI was calculated by the equation: CDI=SRAFP/drug[…]/SRAFP×SRdrug, where SRAFP/drug is the average survival rate of combination group, and SRAFP or SRdrug are the average survival rates of the single agent groups. According to our evaluation, CDI values <1, =1 or >1 indicate that the combinations are synergistic, additive or antagonistic respectively.
The values of Zn-rhAFP/Ptx or rhAFP/Ptx complex concentration, which inhibited the cell viability by 50% (IC50) when compared to untreated control, were calculated according to the Hill's equation (sigmoid model of concentration-response curve) from the curves of dependence of the relative percentage of viable cells from AFP concentration expressed as mean values from three independent experiments±SD.
In order to confirm the hypothesis that the combination of Zn-rhAFP and various low water-soluble chemotherapeutic agents would reveal increased anti-tumor efficacy, different cytotoxic compounds were tested in combination with Zn-rhAFP for their cell-killing effect in MCF-7 cells in vitro. […]

As for `CC(=O)O[C@H]1C(=O)[C@@]2(C)[C@H]([C@H](OC(=O)c3ccccc3)[C@]3(O)C[C@H](OC(=O)[C@H](O)[C@@H](NC(=O)c4ccccc4)c4ccccc4)C(C)=C1C3(C)C)[C@]1(OC(C)=O)CO[C@@H]1C[C@@H]2O` [Ptx, paclitaxel], the viable cell count in data set [1] (FIG. 3: rhAFP 3.0 μM, Ptx 10 μM) was 54 % of control. The cell death in data set [1] (Ptx 10 nM, Zn-rhAFP 1.4 μM) was determined as 55%. For the same compound, the IC50 in data set [2] (Homo sapiens, MCF7, MCF-7, 48 h, compositions of paclitaxel with rhAFP or Zn-rhAFP, mean of three experiments, read-out: IC50) was over 10 µM. Besides, the “Coefficient for drug interaction (CDI)” value in data set [2] (MCF7 + Zn-rhAFP 1.4 μM (Zn:rhAFP 4:1) + drug, 48 h) is on record as 0.80.
